{"source": "patent US10093973B2", "about": "“Polymerase compositions and methods” (LIFE TECHNOLOGIES CORPORATION, priority 2009, dated 2018)", "assay_type_in_all_cases": "biochemical", "key": {"primer-template duplex": {"system": "primer-template duplex", "experiment": "Fractional extension activity assay", "details": "versus reference RB69 (SEQ ID NO: 15) and His-tagged Phi-29 (SEQ ID NO: 20); 330 nM enzyme, 1 μM dNTP, room temperature, 10 seconds", "protocol": "The fractional extension activity of an exemplary modified polymerase having the amino acid of SEQ ID NO: 8 (referred to as “B104(exo-)” in FIG. 3) was measured and compared to the fractional extension activities of two different exemplary reference polymerases, including an RB69 reference polymerase comprising the amino acid sequence SEQ ID NO: 15 and a His-tagged Phi-29 reference polymerase comprising the amino acid sequence of SEQ ID NO: 20 (referred to herein as “HP1 polymerase”). All polymerases were prepared according to the method of Example 1. Both modified and reference polymerases were evaluated and compared in an assay to measure the fractional extension activity of each polymerase, i.e., the fraction of nucleic acid templates that are extended by at least one nucleotide in a polymerase reaction. In this assay, the fractional extension activity of a polymerase is defined as the fraction (measured as a percentage fraction) of nucleic acid templates that are extended by at least one nucleotide by the test or reference polymerase under the following reaction conditions: 50 mM Tris, pH 7.0, 50 mM NaCl, 1 mM MnCl2, 1 μM dNTP, 330 nM enzyme, 100 nM primer-template duplex and 0.5% BSA, wherein the extension is performed at room temperature for 10 seconds.\nThe primer-template duplex was formed by annealing the following polynucleotides: […]"}, "[1]": {"system": "ωdN4P and non-extendible AF546 primer:template duplex", "experiment": "Stopped-flow t−1 measurement of Example 7", "details": "modified versus reference polymerase, ωdN4P 14 μM", "protocol": "In this example, the t−1 values of an exemplary modified polymerase comprising the amino acid of SEQ ID NO: 8 and an exemplary reference polymerase comprising the amino acid sequence of SEQ ID NO: 20 were measured and compared. These kinetic parameters were evaluated using an assay system wherein mixtures comprising a test polymerase and a primer:template duplex were mixed in a stopped-flow assay with nucleotides. To measure t−1, the primer used to form the primer:template duplex was a non-extendible primer including a dideoxynucleotide at its 3′ end, and the template was a synthetic DNA template comprising a donor Alexa Fluor 546 moiety at its 5′ end. […] The ternary complex was mixed with unlabeled nucleotides in a stopped-flow experiment, and the resulting fluorescence was monitored as described below. […]\nPreincubated mixtures comprising 200 nM of a primer:templex duplex, 660 nM of test polymerase, and 14 μM of ωdN4P were prepared and then mixed with a solution comprising the unlabeled cognate nucleotide (50 μM) in a stopped-flow apparatus. The fluorescence at both 546 nm and 647 nm was monitored following mixing. The averaged stopped-flow fluorescence traces were fitted with a single exponential function having the form of Equation (1) to extrapolate the t−1 value of the test polymerase."}, "[2]": {"system": "ωdN4P and extendible AF546 primer:template duplex", "experiment": "Stopped-flow tpol measurement of Example 8", "details": "modified versus reference polymerase, ωdN4P 14 μM", "protocol": "In this example, the tpol values of an exemplary modified polymerase comprising the amino acid of SEQ ID NO: 8 and was measured and compared to the tpol value of an exemplary reference polymerase comprising the amino acid sequence of SEQ ID NO: 20. These kinetic parameters were evaluated using a stopped-flow assay wherein a mixture comprising an extendible dye-labeled primer:template duplex and test polymerase was mixed with a solution comprising terminally-labeled nucleotide tetraphosphates or terminally-labeled nucleotide hexaphosphates. These terminally-labeled nucleotides comprise terminal-phosphate-labeled nucleotides having an alkyl linker with a functional amine group attached to the dye. The fluorescence of the resulting mixture was monitored over time. Unless noted otherwise, all concentrations refer to the initial concentrations prior to mixing. […]\nEach primer-template duplex (200 nM) was preincubated with test polymerase (660 nM) and to form an E.DNA binary complex. This binary complex was mixed with the cognate omega-labeled nucleoside tetraphosphate (ωdN4P; 14 μM) in a stopped-flow experiment, and the fluorescence at both 546 nm and 647 nm was monitored following mixing. The averaged stopped-flow fluorescence traces were fitted with the double exponential function of Equation (2) to extrapolate the tpol value of the test polymerase: […]"}}, "note": "Positions count from the first letter of the chain named.", "data": [{"substance": "mB103 (SEQ ID: 8): B103 polymerase triple mutant with D166A, F383L and D384N", "values": [{"measurement": "fractional extension activity", "setting": "primer-template duplex", "result": "higher"}, {"measurement": "estimated t−1 values", "setting": "[1]", "result": "comparable"}, {"measurement": "estimated tpol values", "setting": "[2]", "result": "comparable"}]}]}
